{"source": "patent US4728729A", "about": "“Cyanoimidazole nucleoside derivatives” (Sumitomo Pharmaceuticals Co., Ltd., priority 1984, dated 1988)", "key": {"[1]": {"settings": "J. of Antibiotics, vol. 27 p. 775 (1974); Canada Pat. No. 1,078,736; cited from earlier work"}, "[2]": {"tested_on": "CCRF-HSB-2 (acute lymphoblastic leukemia)", "assay": "In vitro growth inhibition assay, CCRF-HSB-2", "type": "cell-based", "settings": "Homo sapiens; CCRF-HSB-2, suspension culture, 72 hr", "protocol": "(§1) In vitro growth inhibition activities were determined according to the method described in \"Cancer Research\", Vol. 43, p. 5851-5856 (1983).\n(§2) In the case of suspension culture (lymphoma and leukemia cell lines), cells were cultured with various concentrations of the compound for 72 hr.\n(§3) Cell numbers were counted with a Coulter Counter and IC50 s were calculated."}, "DU 145 (prostate cancer)": {"tested_on": "DU 145 (prostate cancer)", "assay": "In vitro growth inhibition assay, DU 145", "type": "cell-based", "settings": "Homo sapiens; DU 145, monolayer culture, 72 to 120 hr", "protocol": "as §1\n(§4) In the case of monolayer culture (solid tumor cell lines), cells were cultured for 24 hr without the compound in order to allow cells to attach on the culture plate. Then the culture medium was changed to a fresh medium containing various concentrations of the compound. Cells were further cultured for 72 hr to 120 hr, and then removed from the culture plate by 0.125% trypsin and 0.05% EDTA solution.\nas §3"}, "anti-SRBC PFC response": {"tested_on": "anti-SRBC PFC response", "assay": "Immunosuppressive activity: anti-SRBC PFC response in vivo (Cunningham method)", "parameters": "species or system mouse", "settings": "for Suppression / PFC × 10^-3 / spleen: day 0 to 3; for Suppression: PFC measured day 4; for PFC × 10^-3 / spleen: measured day 4, AV. ± SD., n = 4, control 363 ± 51", "protocol": "The immunosuppressive activity of the compound of the present invention was assayed in comparison with mizoribine which has been used in immunosuppressive therapy. After a sheep red blood cell preparation (SRBC) was injected in mice, the compounds were administered orally once a day on day 0 to 3 and the plaque forming cell (PFC) number was measured on day 4 by Cunningham method. [Cunningham A. J. et al. Immunol. 14, 599(1968)]."}, "solid Ehrlich carcinoma": {"tested_on": "solid Ehrlich carcinoma", "assay": "Antitumor effect on solid Ehrlich carcinoma", "type": "in vivo, mouse (ICR/Jcl)", "settings": "Days 1,5,9, tumors weighed day 15", "protocol": "The antitumor activities of the compounds of the present invention were estimated according to the method described in \"Cancer Research\" vol. 43, p. 5851 (1983).\nICR/Jcl male mice, 5 weks old, […], […]. Each test group was composed of 6 mice. Three million cells of Ehrlich carcinoma were injected in the hind leg. The drug was administered orally at days 1, 5, and 9. After sacrificing the mice at day 15, tumors were removed and weighed. The tumor growth inhibitory ratio was calculated according to the following formula. [formula]"}, "[3]": {"tested_on": "Hela (uterine cervix cancer)", "assay": "In vitro growth inhibition assay, Hela", "type": "cell-based", "settings": "Homo sapiens, monolayer culture, 72 to 120 hr", "protocol": "as §1, §4, §3"}, "[4]": {"tested_on": "SCaBER (bladder squamous carcinoma)", "assay": "In vitro growth inhibition assay, SCaBER", "type": "cell-based", "settings": "Homo sapiens, monolayer culture, 72 to 120 hr", "protocol": "as §1, §4, §3"}, "[5]": {"tested_on": "various types of human tumor cell lines", "assay": "In vitro growth inhibition on various human tumor cell lines (summary)", "type": "cell-based", "protocol": "as §1, §2, §4, §3"}, "P3HR1 (Burkitt lymphoma)": {"tested_on": "P3HR1 (Burkitt lymphoma)", "assay": "In vitro growth inhibition assay, P3HR1", "type": "cell-based", "settings": "Homo sapiens, P3HR-1; P3HR1, suspension culture, 72 hr", "protocol": "as §1, §2, §3"}, "[6]": {"tested_on": "KU-2 (renal cell carcinoma)", "assay": "In vitro growth inhibition assay, KU-2", "type": "cell-based", "settings": "Homo sapiens; KU-2, monolayer culture, 72 to 120 hr", "protocol": "as §1, §4, §3"}, "[7]": {"tested_on": "QG-90 (lung small cell carcinoma)", "assay": "In vitro growth inhibition assay, QG-90", "type": "cell-based", "settings": "Homo sapiens; QG-90, monolayer culture, 72 to 120 hr", "protocol": "as §1, §4, §3"}, "A549 (lung cancer)": {"tested_on": "A549 (lung cancer)", "assay": "In vitro growth inhibition assay, A549", "type": "cell-based", "settings": "Homo sapiens; A549, monolayer culture, 72 to 120 hr", "protocol": "as §1, §4, §3"}, "[8]": {"tested_on": "QG-56 (lung squamous carcinoma)", "assay": "In vitro growth inhibition assay, QG-56", "type": "cell-based", "settings": "Homo sapiens; QG-56, monolayer culture, 72 to 120 hr", "protocol": "as §1, §4, §3"}, "[9]": {"tested_on": "HL-60 (promyelocytic leukemia)", "assay": "In vitro growth inhibition assay, HL-60", "type": "cell-based", "settings": "Homo sapiens; HL-60, suspension culture, 72 hr", "protocol": "as §1, §2, §3"}}, "data": [{"smiles": "NC(=O)c1nc[nH]c1O", "note": "[4-carbamoylimidazolium-5-olate]", "values": [{"measurement": "immunosuppressive and antitumor activities, in words", "setting": "[1]", "result": "immunosuppressive and antitumor activities"}]}, {"smiles": "N#Cc1ncn([C@@H]2O[C@H](CO)[C@@H](O)[C@H]2O)c1O", "note": "[4-cyano-1-β-D-ribofuranosylimidazolium-5-olate]", "values": [{"measurement": "IC50", "setting": "[2]", "result": "< 3", "unit": "µM"}, {"measurement": "IC50", "setting": "DU 145 (prostate cancer)", "result": 4.4, "unit": "µM"}, {"measurement": "Suppression", "setting": "anti-SRBC PFC response; 5 mg/day p.o.", "result": 0, "unit": "%"}, {"measurement": "PFC × 10^-3 / spleen", "setting": "anti-SRBC PFC response; 5 mg/day p.o.", "result": "362 ± 123", "unit": "PFC × 10^-3 / spleen"}, {"measurement": "Suppression", "setting": "anti-SRBC PFC response; 25 mg/day p.o.", "result": 99, "unit": "%"}, {"measurement": "PFC × 10^-3 / spleen", "setting": "anti-SRBC PFC response; 25 mg/day p.o.", "result": "4 ± 1", "unit": "PFC × 10^-3 / spleen"}, {"measurement": "Suppression", "setting": "anti-SRBC PFC response; 50 mg/day p.o.", "result": 100, "unit": "%"}, {"measurement": "PFC × 10^-3 / spleen", "setting": "anti-SRBC PFC response; 50 mg/day p.o.", "result": 0, "unit": "PFC × 10^-3 / spleen"}, {"measurement": "immunosuppressive activity compared with mizoribine, in words", "setting": "anti-SRBC PFC response; oral", "result": "more active than mizoribine"}, {"measurement": "immunosuppressive activity in oral administration, in words", "setting": "anti-SRBC PFC response; oral", "result": "potent activity in oral administration"}, {"measurement": "Inhibition ratio (tumor growth)", "setting": "solid Ehrlich carcinoma; 10 mg/kg/day po", "result": 40.1, "unit": "%"}, {"measurement": "Inhibition ratio (tumor growth)", "setting": "solid Ehrlich carcinoma; 20 mg/kg/day po", "result": 73.6, "unit": "%"}, {"measurement": "Inhibition ratio (tumor growth)", "setting": "solid Ehrlich carcinoma; 40 mg/kg/day po", "result": 99.8, "unit": "%"}, {"measurement": "Inhibition ratio (tumor growth)", "setting": "solid Ehrlich carcinoma; 80 mg/kg/day po", "result": 99.8, "unit": "%"}, {"measurement": "IC50", "setting": "[3]", "result": 4.7, "unit": "µM"}, {"measurement": "IC50", "setting": "[4]", "result": 5, "unit": "µM"}, {"measurement": "growth inhibitory activities on human tumor cell lines, in words", "setting": "[5]", "result": "potent growth inhibitory activities"}, {"measurement": "IC50", "setting": "P3HR1 (Burkitt lymphoma)", "result": 4.6, "unit": "µM"}, {"measurement": "IC50", "setting": "[6]", "result": 1, "unit": "µM"}, {"measurement": "IC50", "setting": "[7]", "result": 6.7, "unit": "µM"}, {"measurement": "IC50", "setting": "A549 (lung cancer)", "result": 8.5, "unit": "µM"}, {"measurement": "IC50", "setting": "[8]", "result": 2.8, "unit": "µM"}, {"measurement": "IC50", "setting": "[9]", "result": 0.87, "unit": "µM"}]}, {"smiles": "NC(=O)c1ncn([C@@H]2O[C@H](CO)[C@@H](O)[C@H]2O)c1O", "note": "[Mizoribine, 4-carbamoyl-1-β-D-ribofuranosylimidazolium-5-olate, reference compound]", "values": [{"measurement": "Suppression", "setting": "anti-SRBC PFC response; 5 mg/day p.o.", "result": 0, "unit": "%"}, {"measurement": "PFC × 10^-3 / spleen", "setting": "anti-SRBC PFC response; 5 mg/day p.o.", "result": "496 ± 140", "unit": "PFC × 10^-3 / spleen"}, {"measurement": "Suppression", "setting": "anti-SRBC PFC response; 25 mg/day p.o.", "result": 69, "unit": "%"}, {"measurement": "PFC × 10^-3 / spleen", "setting": "anti-SRBC PFC response; 25 mg/day p.o.", "result": "113 ± 53", "unit": "PFC × 10^-3 / spleen"}, {"measurement": "Suppression", "setting": "anti-SRBC PFC response; 50 mg/day p.o.", "result": 89, "unit": "%"}, {"measurement": "PFC × 10^-3 / spleen", "setting": "anti-SRBC PFC response; 50 mg/day p.o.", "result": "39 ± 43", "unit": "PFC × 10^-3 / spleen"}, {"measurement": "immunosuppressive and antitumor activities, in words", "setting": "[1]", "result": "immunosuppressive and antitumor activities"}]}]}
